In the experiment the test system is BDF1 mice, Friend leukemia sc, tumor weight T/C. Kind of experiment: NCI In Vivo Anticancer Drug Screen. Data for tumor model Friend Virus Leukemia (Solid) (subcutaneous) in B6D2F1 (BDF1) mice. As to conditions: endpoint: mean tumor weight, higher = larger tumour. On the procedure: The antitumor activity of compounds was measured in mice bearing transplantable tumors. Survival or tumor size were measured and the results are expressed as the measurement made in the treated group (T) divided by the measurement made in the vehicle treated control group (C). The tumor model used in this assay is Friend Virus Leukemia (Solid) (subcutaneous) in B6D2F1 (BDF1) mice

[1] abbreviates: dose: 15.0 mg/kg/injection, schedule: Q01DX011 (ip), vehicle: saline.
[2] abbreviates: dose: 30.0 mg/kg/injection, schedule: Q01DX011 (ip), vehicle: saline.
Where [3] appears, read: dose: 60.0 mg/kg/injection, schedule: Q01DX011 (ip), vehicle: saline.
Setting [4] is: dose: 120.0 mg/kg/injection, schedule: Q01DX011 (ip), vehicle: saline.
The mark [5] stands for this setting: dose: 1.0 mg/kg/injection, schedule: Q01DX011 (ip), vehicle: carboxymethylcellulose (CMC).
Where [6] appears, read: dose: 2.0 mg/kg/injection, schedule: Q01DX011 (ip), vehicle: carboxymethylcellulose (CMC).
Setting [7] is: dose: 50.0 mg/kg/injection, schedule: Q01DX011 (ip), vehicle: carboxymethylcellulose (CMC).
Setting [8] is: dose: 25.0 mg/kg/injection, schedule: Q01DX011 (ip), vehicle: carboxymethylcellulose (CMC).
Setting [9] is: dose: 100.0 mg/kg/injection, schedule: Q01DX011 (ip), vehicle: carboxymethylcellulose (CMC).
Setting [10] is: dose: 27.0 mg/kg/injection, schedule: Q01DX011 (ip), vehicle: carboxymethylcellulose (CMC).

Structures are written as SMILES. Several values for one entry are separate records, joined by “and”; a condition that tells them apart may be missing. Identical values can stand only once. Inconclusive results are not listed.

As for `C=CC(=O)NCNC(=O)C=C`, the T/C was 89 % of control under setting [1]; 84 % of control under setting [2]; 70 % of control and 51 % of control under setting [3]; 16 % of control and 39 % of control under setting [4].
Regarding `O=P(N1CC1)(N1CC1)N1CC1`, the T/C reads like this: (dose: 0.5 mg/kg/injection, schedule: Q01DX011 (ip), vehicle: carboxymethylcellulose (CMC)) 86 % of control; under setting [5], 83 % of control; under setting [6], 84 % of control and 88 % of control; (dose: 4.0 mg/kg/injection, schedule: Q01DX011 (ip), vehicle: carboxymethylcellulose (CMC)) 25 % of control and 37 % of control.
As to `O=C(O)c1ccc(-c2ccccc2)cc1`, the T/C under setting [7] is 103 % of control.
Take `CCC(=O)O[C@H]1CC[C@H]2[C@@H]3CCC4=CC(=O)CC[C@]4(C)[C@H]3CC[C@]12C`: the T/C is 84 % of control (dose: 1.0 mg/kg/injection, schedule: Q01DX011 (sc), vehicle: steriod suspending solution); 104 % of control (dose: 5.0 mg/kg/injection, schedule: Q01DX011 (sc), vehicle: steriod suspending solution); 96 % of control (dose: 10.0 mg/kg/injection, schedule: Q01DX011 (sc), vehicle: steriod suspending solution); 81 % of control (dose: 20.0 mg/kg/injection, schedule: Q01DX011 (sc), vehicle: steriod suspending solution); 89 % of control (dose: 40.0 mg/kg/injection, schedule: Q01DX011 (sc), vehicle: steriod suspending solution); 76 % of control (dose: 80.0 mg/kg/injection, schedule: Q01DX011 (sc), vehicle: steriod suspending solution). Further, the T/C by setting is: (dose: 125.0 mg/kg/injection, schedule: Q01DX011 (sc), vehicle: steriod suspending solution) 199 % of control; (dose: 200.0 mg/kg/injection, schedule: Q01DX011 (sc), vehicle: steriod suspending solution) 158 % of control; (dose: 250.0 mg/kg/injection, schedule: Q01DX011 (sc), vehicle: steriod suspending solution) 207 % of control; (dose: 300.0 mg/kg/injection, schedule: Q01DX011 (sc), vehicle: steriod suspending solution) 94 % of control; (dose: 400.0 mg/kg/injection, schedule: Q01DX011 (sc), vehicle: steriod suspending solution) 185 % of control and 201 % of control; (dose: 500.0 mg/kg/injection, schedule: Q01DX011 (sc), vehicle: steriod suspending solution) 171 % of control and 191 % of control and 257 % of control.
Turning to `CC(C)(C)c1ccc(S)cc1`, the T/C was 181 % of control under setting [8], 121 % of control under setting [7] and 85 % of control under setting [9].
With `C[C@]12CC[C@@H]3c4ccc(OC(=O)c5ccccc5)cc4CC[C@H]3[C@@H]1CC[C@@H]2O`, the T/C (dose: 77.25 mg/kg/injection, schedule: Q01DX011 (sc), vehicle: steriod suspending solution) was 102 % of control and the T/C (dose: 154.5 mg/kg/injection, schedule: Q01DX011 (sc), vehicle: steriod suspending solution) was 112 % of control.
On to `CN(C)c1ccc(C(N)=O)cn1`, for which the T/C reads like this: under setting [5], 78 % of control; under setting [6], 88 % of control and 100 % of control.
As to `C[N+](C)(C)c1ncnc2nc[nH]c12`, the T/C (dose: 31.0 mg/kg/injection, schedule: Q01DX011 (ip), vehicle: carboxymethylcellulose (CMC)) was 106 % of control; the T/C (dose: 62.0 mg/kg/injection, schedule: Q01DX011 (ip), vehicle: carboxymethylcellulose (CMC)) was 43 % of control; the T/C (dose: 125.0 mg/kg/injection, schedule: Q01DX011 (ip), vehicle: carboxymethylcellulose (CMC)) was 47 % of control.
Take `CCC(=O)O[C@H]1CC[C@H]2[C@@H]3CC[C@H]4CC(=O)[C@H](C)C[C@]4(C)[C@H]3CC[C@]12C`: the T/C is 212 % of control (dose: 42.0 mg/kg/injection, schedule: Q01DX011 (sc), vehicle: steriod suspending solution); 173 % of control (dose: 44.1 mg/kg/injection, schedule: Q01DX011 (sc), vehicle: steriod suspending solution); 227 % of control (dose: 83.0 mg/kg/injection, schedule: Q01DX011 (sc), vehicle: steriod suspending solution); 184 % of control (dose: 88.2 mg/kg/injection, schedule: Q01DX011 (sc), vehicle: steriod suspending solution); 225 % of control (dose: 176.0 mg/kg/injection, schedule: Q01DX011 (sc), vehicle: steriod suspending solution); 168 % of control and 213 % of control (dose: 353.0 mg/kg/injection, schedule: Q01DX011 (sc), vehicle: steriod suspending solution).
For `CCNc1nncs1`, the T/C runs as follows: (dose: 8.62 mg/kg/injection, schedule: Q01DX011 (ip), vehicle: carboxymethylcellulose (CMC)) 122 % of control; (dose: 17.25 mg/kg/injection, schedule: Q01DX011 (ip), vehicle: carboxymethylcellulose (CMC)) 107 % of control; (dose: 34.5 mg/kg/injection, schedule: Q01DX011 (ip), vehicle: carboxymethylcellulose (CMC)) 193 % of control; (dose: 69.0 mg/kg/injection, schedule: Q01DX011 (ip), vehicle: carboxymethylcellulose (CMC)) 112 % of control.
Turning to `CN(C)C(=S)N=Nc1c(O)[nH]c2ccccc12`, the T/C under setting [1] is 76 % of control, the T/C under setting [2] was 105 % of control, the T/C under setting [3] was 85 % of control and the T/C under setting [4] is 54 % of control.
As for `O=[N+]([O-])c1ccc(O)c([N+](=O)[O-])c1`, the T/C by setting is: (dose: 3.87 mg/kg/injection, schedule: Q01DX011 (ip), vehicle: carboxymethylcellulose (CMC)) 101 % of control; (dose: 6.75 mg/kg/injection, schedule: Q01DX011 (ip), vehicle: carboxymethylcellulose (CMC)) 102 % of control; (dose: 13.5 mg/kg/injection, schedule: Q01DX011 (ip), vehicle: carboxymethylcellulose (CMC)) 103 % of control; under setting [10], 123 % of control.
Regarding `O=C(Nc1ccc(C2=NCCN2)cc1)c1cccc(C(=O)Nc2ccc(C3=NCCN3)cc2)c1`, the T/C (dose: 25.0 mg/kg/injection, schedule: Q01DX011 (ip), vehicle: water) was 72 % of control.
With `O=c1[nH]c2cc(Cl)c(Cl)cc2o1`, the T/C reads like this: (dose: 19.0 mg/kg/injection, schedule: Q01DX011 (ip), vehicle: carboxymethylcellulose (CMC)) 90 % of control; (dose: 37.5 mg/kg/injection, schedule: Q01DX011 (ip), vehicle: carboxymethylcellulose (CMC)) 81 % of control; (dose: 75.0 mg/kg/injection, schedule: Q01DX011 (ip), vehicle: carboxymethylcellulose (CMC)) 82 % of control; (dose: 150.0 mg/kg/injection, schedule: Q01DX011 (ip), vehicle: carboxymethylcellulose (CMC)) 77 % of control.
For `O=S(=O)(O)c1cccnc1`, the T/C reads like this: (dose: 39.0 mg/kg/injection, schedule: Q01DX011 (ip), vehicle: carboxymethylcellulose (CMC)) 86 % of control and 101 % of control; (dose: 157.0 mg/kg/injection, schedule: Q01DX011 (ip), vehicle: carboxymethylcellulose (CMC)) 98 % of control and 110 % of control.
For `CS(=O)(=O)OCCCCOS(C)(=O)=O`, the T/C runs as follows: (dose: 6.62 mg/kg/injection, schedule: Q01DX011 (ip), vehicle: carboxymethylcellulose (CMC)) 107 % of control; (dose: 7.0 mg/kg/injection, schedule: Q01DX011 (ip), vehicle: carboxymethylcellulose (CMC)) 65 % of control; (dose: 13.25 mg/kg/injection, schedule: Q01DX011 (ip), vehicle: carboxymethylcellulose (CMC)) 68 % of control; (dose: 14.0 mg/kg/injection, schedule: Q01DX011 (ip), vehicle: carboxymethylcellulose (CMC)) 91 % of control; (dose: 26.5 mg/kg/injection, schedule: Q01DX011 (ip), vehicle: carboxymethylcellulose (CMC)) 110 % of control; under setting [10], 55 % of control. The T/C (dose: 53.0 mg/kg/injection, schedule: Q01DX011 (ip), vehicle: carboxymethylcellulose (CMC)) was 66 % of control.
Regarding `CC1=C2C(=C[C@@](C)(CO)[C@@H]2O)C(=O)[C@](C)(O)C12CC2`, the T/C (dose: 7.5 micrograms/kg/injection, schedule: Q01DX011 (ip), vehicle: carboxymethylcellulose (CMC)) was 121 % of control; the T/C (dose: 15.0 micrograms/kg/injection, schedule: Q01DX011 (ip), vehicle: carboxymethylcellulose (CMC)) is 91 % of control; the T/C (dose: 30.0 micrograms/kg/injection, schedule: Q01DX011 (ip), vehicle: carboxymethylcellulose (CMC)) was 69 % of control.
Take `CC(=O)Nc1ccc2nc3ccc(NC(C)=O)cc3[n+](-c3ccccc3)c2c1`: the T/C reads like this: under setting [8], 101 % of control; under setting [7], 112 % of control; under setting [9], 92 % of control.

The values above are taken from PubChem BioAssay AID228 (DTP/NCI, 2004).
